Reference: patent US11926644B2, “Syntheses, activities, and methods of use of dihydronicotinamide riboside derivatives” (Cornell University, priority 2015, dated 2024)

Columns and labels:
HEK293 cells = assay: NAD+ measurement in HEK293 cells (NAD+ cycling assay); settings: for cellular NAD concentration: 6 hours of incubation, 50-500 μM
Experimental: Cell number were counted using hemocytometer.
After 6 hours of incubation, cells were harvested with Trypsin. A cell count was obtained from each cell suspension by hemacytometer. The cell pellets were used for NAD^+ measurement.
Water-only and nicotinamide riboside (NR) control treatments were run.
HEK cells were plated in 6-well plates until 90% confluent. […] After 6 hours of incubation, cells were harvested with Trypsin. A cell count was obtained from each cell suspension by hemacytometer. The cell pellets were used for NAD^+ measurement.

INS1 cells = assay: Glucose-induced insulin secretion test in INS1 cells with hydrogen peroxide challenge; assay type: cell-based; settings: 1 mM, 100 μM hydrogen peroxide, 15 mmol/l glucose
Experimental: To induce insulin secretion, INS1 cells were seeded in 6-well plate. The cells were accommodated to low glucose RPMI-1640 media with 5 mmol/1 D-glucose overnight. Insulin secretion was assayed in HEPES balanced salt solution (HESS) (114 mmol/1 NaCl, 4.7 mmol/1 KCl, 1.2 mmol/1 KH2PO4, 1.16 mmol/1 MgSO4, 20 mmol/1 HEPES, 2.5 mmol/1 CaCl2, 25.5 mmol/1 NaHCO3, and 0.2% bovine serum albumin [essentially fatty acid free], pH 7.2). Cells wore washed in 1 ml HESS with 3 mmol/1 glucose followed by a 2 hr preincubation in 2 ml of the same buffer. Insulin secretion was then measured by incubating 1 hr 1 ml of HESS containing the 3 mmol/1 or 15 mmol/1 glucose concentration. The media was then collected for insulin analysis using RayBio™ Rat Insulin ELISA kit according to manufacturer's manual. In hydrogen peroxide challenge, 100 μM hydrogen peroxide were added to media together with 3 mmol/1 glucose containing HESS and incubated for 2 hr before switch to 15 mmol/l glucose containing HBSS for insulin secretion.

[1] = HEK cells, 50 μM, 6 hours, percentages of average NAD^+ as compared to control

Compound	Average NAD^+ (pmoles/10^6 cells) (HEK293 cells; [1]) [%]	cellular NAD concentration (HEK293 cells; HEK cells)	also measured
CCCCOC(=O)C1=CN([C@@H]2O[C@H](CO)[C@H](O)[C@@H]2O)C=CC1 [Bu NaR—H, butyl-1-((2R,3S,4R,5R)-3,4-dihydroxy-5-(hydroxymethyl)tetrahydrofuran-2-yl)-1,4-dihydropyridine-3-carboxylate]	124		
CCOC(=O)C1=CN([C@@H]2O[C@H](CO)[C@H](O)[C@@H]2O)C=CC1 [Et NaR-H, ethyl-1-((2R,3S,4R,5R)-3,4-dihydroxy-5-(hydroxymethyl)tetrahydrofuran-2-yl)-1,4-dihydropyridine-3-carboxylate]		increased	
CCCCCCCOC(=O)C1=CN([C@@H]2O[C@H](CO)[C@H](O)[C@@H]2O)C=CC1 [Hep NaR—H, heptyl-1-((2R,3S,4R,5R)-3,4-dihydroxy-5-(hydroxymethyl)tetrahydrofuran-2-yl)-1,4-dihydropyridine-3-carboxylate]	124		
NC(=O)c1ccc[n+]([C@@H]2O[C@H](CO)[C@@H](O)[C@H]2O)c1 [NR, nicotinamide riboside]			insulin secretion level under hydrogen peroxide (INS1 cells): restored the insulin secretion level back to a similar extent as untreated control; increase in NAD^+ (HEK293 cells; HEK293, 1000 mM as printed (1 mM elsewhere in the source)): 148%; Average NAD^+ (pmoles/10^6 cells) (HEK293 cells; HEK293, 1000 mM as printed in table (1 mM elsewhere in the source), compared to control): 148%
CCCCCCCCOC(=O)C1=CN([C@@H]2O[C@H](CO)[C@H](O)[C@@H]2O)C=CC1 [Oct NaR—H, octyl-1-((2R,3S,4R,5R)-3,4-dihydroxy-5-(hydroxymethyl)tetrahydrofuran-2-yl)-1,4-dihydropyridine-3-carboxylate]	112		
CCCOC(=O)C1=CN([C@@H]2O[C@H](CO)[C@H](O)[C@@H]2O)C=CC1 [Pr NaR-H, propyl-1-((2R,3S,4R,5R)-3,4-dihydroxy-5-(hydroxymethyl)tetrahydrofuran-2-yl)-1,4-dihydropyridine-3-carboxylate]		increased	
